We go through one compound from patent US10327423B2, “Antimicrobial compounds and compositions, and uses thereof” (Akeso Biomedical, Inc., priority 2014, dated 2019).

One assay has as its system H. pylori strain 17875. Put plainly: Binding of I-125 labelled Le^b to H. pylori (bound/free). More on the design: species or system Helicobacter pylori. Conditions: increasing Fe-QA concentration; pH 7.4. The protocol: Binding of Le^b to H. pylori strain 17875 at pH 7.4 was assayed by labeling Le^b with radioactive iodine (1-125), mixing the radioactive antigen with H. pylori bacteria, pelletizing the bacteria using a centrifuge, and measuring the radioactivity in the pellet and in the supernatant. Any Le^b that is bound to the bacteria is quantified by the measurement of radioactivity in the pellet. The ratio of the radioactivity in the pellet to the supernatant therefore corresponds to the ratio of Le^b bound by the bacteria to that which remains unbound, expressed as bound/free.

Assay [1] in a line: Growth performance of broilers challenged with Campylobacter dirty litter at day 20. The assay is classed as in vivo, chicken (Ross 308 male broilers). Conditions: treatment groups 3, 5, 6, 7 (FeQ) and 8 (FeTyr). As to the method:
(§1) A study was performed to evaluate growth promotion and reduction of Campylobacter carriage using FeQ and FeTyr in Ross 308 male broilers with 7 treatment groups. Each treatment group comprised four replicates of 10 birds per pen (40 birds/treatment group and 4 pens of 10 birds/treatment group), and there were 2 control groups and 5 test groups. All the test groups and one of the control groups were exposed at day 20 of the trial to dirty litter, which tested positive for Campylobacter. This method was used to provide a more natural method to Campylobacter challenge the birds. Thus there was a positive control where one treatment group was challenged with Campylobacter and one negative control group where the birds were not challenged, and five treatment groups that were all challenged with Campylobacter. The total number of birds used in the 7 treatment groups was 280. Treatment group 1 was a negative control where birds just received the commercial feed, and were not challenged with dirty litter containing Campylobacter. Treatment group 2 was the positive control where the birds received the commercial feed, and were challenged with dirty litter containing Campylobacter at day 20. Treatment group 3 received 0.22 g/L of FeQ in their drinking water and 0.22 g/Kg FeQ in their feed during the entire trial, and was challenged with dirty litter containing Campylobacter at day 20. Treatment group 5 received 0.22 g/L of FeQ in their drinking water during the entire trial, and was challenged with dirty litter containing Campylobacter at day 20. Treatment group 6 received 0.22 g/kg FeQ in their feed during the entire trial, and was challenged with dirty litter containing Campylobacter at day 20. Treatment group 7 received 0.022 g/L FeQ in their drinking water during the entire trial, and was challenged with dirty litter containing Campylobacter at day 20. Treatment group 8 received 0.02 g/L FeTyr in their drinking water during the entire trial, and was challenged with dirty litter containing Campylobacter at day 20. The FeTyr was pre-dissolved in DMSO, and diluted to provide a solution of 0.02 g/L of FeTyr in water. (An additional treatment group 4 was terminated due to solubility issues.) […]
The feeding program is show in Table 4. […] All birds were weighed individually and feed weigh backs recorded per pen at day 0, 11, 21, 24 and 42 days.
In order to minimize risk of cross-contamination, standard industry biosecurity measures were used including: disinfecting boots, changing overshoes and gloves between pens/treatments, entering Campylobacter negative pens before entering Campylobacter positive pens, and leaving adjacent pens empty. Daily health, culls, and mortality were recorded. All bird weights were recorded at 0, 11, 21, 24, 33 and 42 days. […]

The next assay deals with Campylobacter. The assay is described as follows: Campylobacter carriage in chickens (cfu/g of droppings and caeca samples). The assay is classed as in vivo. The settings on record: days 0-42, dirty litter challenge. As to the method:
as §1, with “20.” for “20. Treatment group 7 received 0.022 g/L FeQ in their drinking water during the entire trial, and was challenged with dirty litter containing Campylobacter at day 20. Treatment group 8 received 0.02 g/L FeTyr in their drinking water during the entire trial, and was challenged with dirty litter containing Campylobacter at day 20. The FeTyr was pre-dissolved in DMSO, and diluted to provide a solution of 0.02 g/L of FeTyr in water. (An additional treatment group 4 was terminated due to solubility issues.)”
Prior to challenging the chickens with dirty litter containing Campylobacter at day 20, each pen was tested for Campylobacter using cloacal swabs. […] Samples were analyzed for blood chemistry, including analysis for alkaline phosphatase, aspartate amino transferase, alanine amino transferase, gamma-glutamyl transferase, lactate dehydrogenase, total protein, albumin, globulin, amylase and glucose.

In assay [2] the test system is Enteropathogenic E. coli (EPEC) strain E2348/69. Put plainly: Growth curve of antibiotic resistant EPEC with gentamicin and Fe complex. Conditions: for rate of growth relative to gentamicin alone: gentamicin 1.25 μM and FeQ 10 to 100 μM. Format: cell-based, Escherichia coli. As to the method: The impact on the growth curve of antibiotic resistant Enteropathogenic E. coli (EPEC) strain E2348/69 (genotype Wild Type EPEC O17:H6) when grown in the presence of (i) gentamicin (1.25 μM), (ii) Fe-Tyr (100 μM), (iii) gentamicin (1.25 μM) and Fe-Tyr (1.25 μM), and (iv) a control with no gentamicin or Fe-Tyr present was determined.
The impact on the growth curve of antibiotic resistant Enteropathogenic E. coli (EPEC) strain E2348/69 (genotype Wild Type EPEC O17:H6) when grown in the presence of a fixed concentration of gentamicin (1.25 μM) and an increasing concentration of FeQ versus the strain grown in the presence of only FeQ or only gentamicin, was determined.
The impact on the growth curve of antibiotic resistant Enteropathogenic E. coli (EPEC) strain E2348/69 (genotype Wild Type EPEC O17:H6) when grown in the presence of a fixed concentration of gentamicin (1.25 μM) and an increasing concentration of FeDOPA versus the strain grown in the presence of only FeDOPA or only gentamicin, was determined.

Entries after “also recorded” stand apart in the source; their conditions may differ.

With `O=C1[O][Fe]23([O]C(=O)[C@]4(C[C@@H](O)[C@H](O)[C@H](O)C4)[O]2)([O]C(=O)[C@]2(C[C@@H](O)[C@H](O)[C@H](O)C2)[O]3)[O][C@@]12C[C@@H](O)[C@H](O)[C@H](O)C2` [FeQ, a complex of quinic acid with Fe III], the “competitive inhibition of Le^b binding to H. pylori (bound/free Le^b)” value in the assay with H. pylori strain 17875 is given as “increasingly inhibits binding”. Moreover, in assay [1], the “ABW at day 42 versus positive control (challenged, untreated)” value is recorded as “performed better than the positive control” and the “MFCR at day 42 versus positive control (challenged, untreated)” value is “performed better than the positive control”. Also, in the assay on Campylobacter (Treatment 7: FeQ 0.022 g/L in drinking water), the “Campylobacter colony forming units per gram of bird droppings at day 42” value is on record as “less of an effect than the other treatment groups”. Moreover, the “average Campylobacter cfu/g of caeca samples at day 42 versus positive control” value in the assay on Campylobacter (treatment groups 3, 5, 6, 7 (FeQ) and 8 (FeTyr)) was “lower levels of Campylobacter in their caeca; also recorded: performed better than the positive control”. Besides, the growth rate entry in assay [2] (FeQ alone, 10 μM to 100 μM) is listed as “did not impact the growth rate”. Also, the “rate of growth relative to gentamicin alone” value in assay [2] was “inhibited”. Besides, the “rate of growth relative to gentamicin alone” value in assay [2] (listed as Fe-QA) was “loses its resistance”.
